Measurements from patent US20170165240A1, “NEW STRATEGIES FOR TREATING MELANOMA” (Université Libre de Bruxelles, priority 2014, published 2017).
Entries after “also recorded” stand apart in the source; their conditions may differ. Like-named read-outs stand apart in the source and are kept apart here.

Experiments:
[1] = system: MM074 melanoma cell line; test: Cell proliferation, crystal violet assay, MM074; conditions: for IC10: 10% growth reduction
[2] = system: MM043 melanoma cell line; test: Cell proliferation, crystal violet assay, MM043; conditions: for IC10 / CI (combination index): MM043; for IC10: 10% growth reduction; for CI (combination index): PI3K inhibitor at IC10 in combination with vemurafenib
[3] = system: MM074-R melanoma cell line; conditions: 10% growth reduction
[4] = system: key proteins of MAPK and p53/PI3K/AKT pathways; test: Western blot analysis, MM074 cells; format: cell-based, human; conditions: MM074, Western blotting
Experimental: (§1) Cells were plated in Petri dishes (3×10^6 cells/dish) in culture medium. […] Then, cells were exposed or not to effectors for 30 minutes or 24 hours. Cells were lysed using a detergent cocktail (M-PER Mammalian Extraction Buffer) supplemented with protease inhibitors (Halt Protease Inhibitor Cocktail) and phosphatase inhibitors (Halt Phosphatase Inhibitor Cocktail) (all from Pierce, Rockford, Ill., USA). Protein concentrations were determined by the BCA Protein Assay (Pierce) using bovine serum albumin as the standard. Equal amounts of extracted proteins (35 μg) were subjected to 10 or 12% SDS-PAGE and electrotransferred onto nitrocellulose membranes using iBlot® Dry Blotting System (Invitrogen, Life Technologies, Gent, Belgium). Immunodetections were performed using antibodies raised against ^V600EBRAF (VE1, 1/1000) (from Spring Bioscience, Pleasanton, Calif., USA), pBRAF (Ser 445) (1/1000), pCRAF (Ser 338) (1/1000), CRAF (1/1000), p110α (C73F8, 1/1000), PTEN (138G6, 1/1000), pAKT (Ser 473) (D9E, 1/500), AKT (40D4, 1/1000), p21 (12D1, 1/1000) and p53 Ser15 (16G8) (all from Cell Signaling Technology, Danvers, Mass., USA), BRAF (F-7, 1/200), pERK (Tyr 204) (E-4, 1/1000), ERK2 (C-14, 1/2000), p53 (DO-1, 1/200) and MDM2 (SMP14, 1/200) (all from Santa Cruz Biotechnology, Santa Cruz, Calif., USA), and MDM4 (8C6, 1/1000), […]-actin (C4, 1/5000) (from Millipore, Temecula, Calif., USA). Peroxidase-labeled anti-rabbit IgG antibody (1/5000) or peroxidase-labeled anti-mouse IgG antibody (1/5000) (both from Amersham Pharmacia Biotech, Roosendaal, The Netherlands) were used as secondary reagents to detect corresponding primary antibodies. […] Immunostaining signals were digitalized with a PC-driven LAS-3000 CCD camera (Fujifilm, Tokyo, Japan), using a software specifically designed for image acquisition (Image Reader, Raytest®, Straubenhardt, Germany). Immunoreactive band intensities were quantified using the software AIDA® Image Analyser 3.45 (Raytest®).

[5] = system: MM074 melanoma cell line; test: Apoptosis determination (annexin V), MM074; format: cell-based, human
[6] = system: key proteins of MAPK and p53/PI3K/AKT pathways; test: Western blot analysis, MM043 cells; format: cell-based, human; conditions: MM043, Western blotting
Experimental: as §1

[7] = system: MM043 melanoma cell line; test: Apoptosis determination (annexin V), MM043; format: cell-based, human
[8] = system: MM043 xenografts; test: Human melanoma xenografts, MM043; format: in vivo, mice
Experimental: (§2) Mice were injected subcutaneously (right and left flank) with 5×10^6 MM074 (vemurafenib sensitive), MM043 (with intrinsic resistance) or MM074-R cells (with acquired resistance) in 200 μl of 50% Matrigel (from Trevigen, Gaithersburg, Md.) in saline. When tumors reached 200 mm^3, mice were randomized into groups of 8 and daily intraperitoneally injected with vehicle, 45 mg/kg vemurafenib, 50 mg/kg PRIMA-1^Met or vemurafenib plus PRIMA-1^Met. […] Tumor volumes were calculated using the formula (L×W×W)/2 (Ji Z et al., 2013, Clin Cancer Res Off J Am Assoc Cancer Res. 19(16):4383-4391), in which L is the length and W is the width as measured with a vernier calliper.
(§3) The sensitive melanoma cells (MM074) xenografts were used as control. After subcutaneous cell injection, tumor growth was monitored to reach volumes of about 200 mm^3.

[9] = system: key proteins of MAPK and p53/PI3K/AKT pathways; test: Western blot analysis, MM074-R cells; format: cell-based, human; conditions: Western blotting, 50 and 75 μM for 24 hours
Experimental: as §1

[10] = system: MM034 melanoma cell line; test: Cell proliferation, crystal violet assay, MM034; format: cell-based; conditions: Homo sapiens, V600E, read-out: IC50 (μM) vemurafenib
Experimental: (§4) Cells were distained under running tap water and subsequently lysed with 0.2% Triton X-100 for 90 minutes (v/v in water).
(§5) The IC50 and IC10 values represent the inhibitory concentrations producing, respectively, 50% and 10% growth reduction and were calculated from dose response curves using GraphPad Prism software (GraphPad Software, La Jolla, Calif., USA).

[11] = system: MM070 melanoma cell line; test: Cell proliferation, crystal violet assay, MM070; format: cell-based; conditions: Homo sapiens, V600E, read-out: IC50 (μM) vemurafenib
Experimental: as §4, §5

[12] = system: ERK and AKT phosphorylation; test: Western blot, ERK and AKT phosphorylation in panel of vemurafenib-resistant lines; format: cell-based, human
Experimental: Representative Western blots illustrating the evolution of (A) ERK and (B) AKT phosphorylation in melanoma cells exposed to increasing concentrations of vemurafenib (0.1, 1 and 10 μM) for 24 hours. Ratio of phosphorylated protein over total protein were calculated from densitometry evaluation.
Cells were plated in Petri dishes (3×10^6 cells/dish) in culture medium. […] Then, cells were exposed or not to effectors for 30 minutes or 24 hours. Cells were lysed using a detergent cocktail (M-PER Mammalian Extraction Buffer) supplemented with protease inhibitors (Halt Protease Inhibitor Cocktail) and phosphatase inhibitors (Halt Phosphatase Inhibitor Cocktail) (all from Pierce, Rockford, Ill., USA). Protein concentrations were determined by the BCA Protein Assay (Pierce) using bovine serum albumin as the standard. Equal amounts of extracted proteins (35 μg) were subjected to 10 or 12% SDS-PAGE and electrotransferred onto nitrocellulose membranes using iBlot® Dry Blotting System (Invitrogen, Life Technologies, Gent, Belgium). […] Immunostaining signals were digitalized with a PC-driven LAS-3000 CCD camera (Fujifilm, Tokyo, Japan), using a software specifically designed for image acquisition (Image Reader, Raytest®, Straubenhardt, Germany). Immunoreactive band intensities were quantified using the software AIDA® Image Analyser 3.45 (Raytest®).

[13] = system: MM029 melanoma cell line; test: Cell proliferation, crystal violet assay, MM029; format: cell-based; conditions: Homo sapiens, V600K, read-out: IC50 (μM) vemurafenib
Experimental: as §4, §5
(§6) CI values between 0.9 and 1.1 indicates an additive effect; values between 0.7 and 0.9, a moderate synergism; values lower than 0.7, a strong synergism; and antagonism is represented by CI values higher than 1.1.

[14] = system: MM032 melanoma cell line; test: Cell proliferation, crystal violet assay, MM032; format: cell-based; conditions: Homo sapiens, V600E, read-out: IC50 (μM) vemurafenib
Experimental: as §4, §5, §6

[15] = system: MM050 melanoma cell line; test: Cell proliferation, crystal violet assay, MM050; format: cell-based; conditions: Homo sapiens, V600E, read-out: IC50 (μM) vemurafenib
Experimental: as §4, §5

[16] = system: MM074 xenografts; test: Human melanoma xenografts, MM074; format: in vivo, mice
Experimental: as §2, §3

[17] = system: MM133 melanoma cell line; test: Cell proliferation, crystal violet assay, MM133; format: cell-based; conditions: Homo sapiens, V600K, read-out: IC50 (μM) vemurafenib
Experimental: as §4, §5, §6

[18] = system: panel of V600E/K BRAF melanoma cell lines; test: Cell proliferation and apoptosis in panel of V600E/K BRAF melanoma cell lines; conditions: Homo sapiens
[19] = system: MM074-R melanoma cell line; test: cells; conditions: Homo sapiens, read-out: IC50 (μM) vemurafenib
[20] = system: MM054 melanoma cell line; test: Cell proliferation, crystal violet assay, MM054; format: cell-based; conditions: Homo sapiens, V600E, read-out: IC50 (μM) vemurafenib
Experimental: as §4, §5, §6

[21] = system: melanoma; conditions: ipilimumab only group, 9 of 15 responders; cited from earlier work
[22] = Homo sapiens, read-out: IC50 (μM) vemurafenib

For `O=c1cc(N2CCOCC2)oc2c(-c3ccccc3)cccc12` [LY294002], the IC10 ([1]; MM074) was 5 µM, the IC10 [2] was 5 µM and the “CI (combination index)” value [2] was 0.56. The IC10 [3] was 5 µM.
In the case of `COc1ccc(-c2cc3c(C)nc(N)nc3n([C@H]3CC[C@H](OCCO)CC3)c2=O)cn1` [PF-04691502], the AKT phosphorylation [4] is reported as “inhibited”, the “apoptosis (annexin V-positive cells)” value ([5]; MM074, PI3K inhibitor at IC10 in combination with vemurafenib, 2 days) is reported as “increased” and the IC10 ([1]; MM074) is reported as 0.1 µM. The cell proliferation ([1]; MM074, PI3K inhibitor at IC10 in combination with increasing concentrations of vemurafenib) was “not significantly affected”, the AKT phosphorylation [6] was “inhibited” and the IC10 [2] was 0.1 µM. For the same compound, the “CI (combination index)” value [2] was 0.64, the IC10 [3] was 0.1 µM and the “apoptosis (annexin V-positive cells)” value ([7]; MM043, PI3K inhibitor at IC10 in combination with vemurafenib, 2 days) was “significant increase in apoptosis”.
For `COCC1(CO)C(=O)C2CCN1CC2` (centres unmarked) [PRIMA-1^Met, 2-hydroxymethyl-2-methoxymethylazabicyclo[2.2.2]octan-3-one], the AKT phosphorylation [4] was “inhibition of p110α expression and AKT phosphorylation”, the PTEN expression [4] was “increase in PTEN levels” and the p110α expression [4] was “inhibition of p110α expression and AKT phosphorylation”. For the same compound, the mean tumor volume ([8]; after 20 days of treatment) was 1080 mm^3, the AKT phosphorylation [6] was “inhibited AKT phosphorylation; also recorded: inhibition of p110α expression and AKT phosphorylation” and the PTEN expression [6] was “stimulated PTEN expression; also recorded: increase in PTEN levels”. For the same compound, the “p53 expression / p53 pathway” value [6] was “restored p53 expression; also recorded: activation of the p53 pathway”, the p110α expression [6] was “inhibition of p110α expression and AKT phosphorylation” and the AKT phosphorylation [9] was “decrease of p110α expression and AKT phosphorylation”. For the same compound, the “p21 and PTEN levels” value [9] was “upregulation of p21 and PTEN levels”, the “p53 expression and phosphorylation” value [9] was “dose-dependent increase of p53 expression and phosphorylation” and the p110α expression [9] was “decrease of p110α expression and AKT phosphorylation”. It also gave an IC10 [3] of 40 µM.
With `CCCS(=O)(=O)Nc1ccc(F)c(C(=O)c2c[nH]c3ncc(-c4ccc(Cl)cc4)cc23)c1F` [vemurafenib, N-(3-{[5-(4-chlorophenyl)-1H-pyrrolo[2,3-b]pyridin-3-yl]carbonyl}-2,4-difluorophenyl)propane-1-sulfonamide] the IC50 [10] was 0.1 µM, the AKT phosphorylation [4] was “strongly inhibited” and the PTEN expression [4] was “concentration-dependent increase of PTEN expression”. The “ERK phosphorylation (pERK)” value ([4]; 24 hours) was “similarly inhibited”, the IC50 [11] was 0.05 µM and the pERK ([12]; all resistant lines, 24 hours) was “similarly inhibited in a concentration-dependent manner”. The pAKT ([12]; resistant lines MM032, MM043 and MM133, 24 hours) was “unaffected in three out of five resistant lines”, the “apoptosis (annexin V-positive cells)” value ([5]; MM074, 2 days) was “induces apoptosis” and the tumor growth ([8]; 45 mg/kg vemurafenib and/or 50 mg/kg PRIMA-1^Met daily IP) was “did not significantly affected tumor growth”. It also gave a mean tumor volume ([8]; after 28 days of treatment) of roughly 1130 mm^3, an IC50 [13] of 30 µM and an IC50 [14] of 2 µM. For the same compound, the IC50 [1, 22] was 0.1 µM, the AKT phosphorylation [6] was “neither AKT phosphorylation nor PTEN expression were affected” and the PTEN expression [6] was “neither AKT phosphorylation nor PTEN expression were affected”. For the same compound, the “ERK phosphorylation (pERK)” value ([6]; 24 hours) was “similarly inhibited”, the IC50 [2, 22] was 20 µM and the IC50 [15] was 0.1 µM. For the same compound, the average tumor volume ([16]; 28 days, 45 mg/kg daily intraperitoneally) was roughly 190 mm3, the tumor growth ([16]; as of day 4 after starting treatment) was “inhibited tumor growth” and the IC50 [17] was 2 µM. For the same compound, the “apoptosis (annexin V-positive cells)” value ([7]; MM043, 2 days) was “no apoptosis is detected”, the IC50 ([18]; read-out: IC50, cell lines found to be resistant) was greater than 10 µM and the IC50 ([18]; read-out: IC50, cell lines found to be sensitive) was no more than 2 µM. For the same compound, the IC50 [19] was 20 µM and the IC50 [20] was 40 µM.
In the case of “ipilimumab: an antibody raised against CTLA-4 molecule on T-cells”, the “responders who maintained an objective response for at least 2 years” value [21] is given as 60%.
